Measured values: patent US10160729B2, “Hsp70 modulators and methods for making and using the same” (Memorial Sloan Kettering Cancer Center, priority 2014, dated 2018)

Test system: MOLM-13 cells
Assay: Caspase cleavage assay (Caspase3, 7 activation)
Format: cell-based
Settings: Homo sapiens, 16 h treatment, caspase substrate Z-DEVD-R110, read-out: c* Concentration at which 50% of the maximum signal was achieved (caspase activation)
Method in brief: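 Cells (30,000/well, RPMI) treated 16 h with compound or DMSO in triplicate, then given buffer with 10 mM HEPES pH 7.5, 2 mM EDTA, 0.1% CHAPS and 25 μM Z-DEVD-R110. Fluorescence read once signal stabilized; results given as percentage increase in apoptotic cells versus DMSO-treated control.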

Row | Structure (SMILES) | EC50 [µM]
1 | C#CCN1CCN(c2ncc(Sc3ccc(C(N)=O)cc3)c(OCc3ccc(F)c(Cl)c3)n2)CC1 [compound 354, 4-((4-((3-Chloro-4-fluorobenzyl)oxy)-2-(4-(prop-2-yn-1-yl)piperazin-1-yl)pyrimidin-5-yl)thio)benzamide] | < 0.2
2 | C#CCN1CCN(c2ncc(Sc3ccc(C(N)=O)c(C(F)(F)F)c3)c(OCc3cccc(Cl)c3)n2)CC1 [compound 351, 4-((4-((3-Chlorobenzyl)oxy)-2-(4-(prop-2-yn-1-yl)piperazin-1-yl)pyrimidin-5-yl)thio)-2-(trifluoromethyl)benzamide] | 1 to 1.2
3 | CN1CCN(c2ncc(Sc3ccc(C(N)=O)cc3)c(OCc3cccc(NC4CC4)c3)n2)CC1 [100e, 4-((4-((3-(Cyclopropylamino)benzyl)oxy)-2-(4-methylpiperazin-1-yl)pyrimidin-5-yl)thio)benzamide] | < 0.2
4 | [2H]C([2H])(Oc1nc(N2CCN(C)CC2)ncc1Sc1ccc(C(N)=O)cc1)c1ccccc1 [100u, 4-((4-(Benzyloxy-d2)-2-(4-methylpiperazin-1-yl)pyrimidin-5-yl)thio)benzamide] | 0.4 to 1
5 | COc1c(F)ccc(COc2nc(N3CCN(C)CC3)ncc2Sc2ccc(N)nc2)c1F [compound 158, 5-((4-((2,4-Difluoro-3-methoxybenzyl)oxy)-2-(4-methylpiperazin-1-yl)pyrimidin-5-yl)thio)pyridin-2-amine] | < 0.2
6 | CN1CCN(c2ncc(Sc3ccc(C(N)=O)cc3)c(OCc3ccc(I)cc3)n2)CC1 [100v, 4-((4-((4-Iodobenzyl)oxy)-2-(4-methylpiperazin-1-yl)pyrimidin-5-yl)thio)benzamide] | ≥ 1.2
7 | CN1CCN(c2ncc(Sc3ccc(C=O)cc3)c(OCc3ccccc3)n2)CC1 [compound 45, 4-((4-(Benzyloxy)-2-(4-methylpiperazin-1-yl)pyrimidin-5-yl)thio)benzaldehyde] | 0.2 to 0.4
8 | CN1CCN(c2ncc(Sc3ccc(C(N)=O)cc3)c(OCc3ccco3)n2)CC1 [100i, 4-((4-(Furan-2-ylmethoxy)-2-(4-methylpiperazin-1-yl)pyrimidin-5-yl)thio)benzamide] | 0.4 to 1
9 | CC(Oc1ccc(Sc2cnc(N3CCN(C)CC3)nc2OCc2ccccc2)cc1)C(N)=O (stereo not shown) [compound 65, 2-(4-((4-(Benzyloxy)-2-(4-methylpiperazin-1-yl)pyrimidin-5-yl)thio)phenoxy)propanamide] | 0.4 to 1
10 | NC(=O)c1ccc(Sc2cnc(N3CCOCC3)nc2OCc2ccccc2)cc1 [179a] | ≥ 1.2
11 | COc1cccc(COc2nc(N3CC[C@@H](N(C)C)C3)ncc2Sc2ccc(C(N)=O)cc2)c1 [190e, (R)-4-((2-(3-(dimethylamino)pyrrolidin-1-yl)-4-((3-methoxybenzyl)oxy)pyrimidin-5-yl)thio)benzamide] | < 0.2
12 | COc1cncc(COc2nc(N3CCN(C)CC3)ncc2Sc2ccc(C(N)=O)c(Cl)c2)c1 [compound 125, 2-Chloro-4-((4-((5-methoxypyridin-3-yl)methoxy)-2-(4-methylpiperazin-1-yl)pyrimidin-5-yl)thio)benzamide] | < 0.2
13 | COC(=O)c1ccc(Sc2cnc(N3CCN(C)CC3)nc2OCc2ccccc2)cc1 [compound 49, Methyl 4-((4-(benzyloxy)-2-(4-methylpiperazin-1-yl)pyrimidin-5-yl)thio)benzoate] | 0.2 to 0.4
14 | COc1cc(COc2nc(N3CCN(C)CC3)ncc2Sc2ccc(C(N)=O)c(C(F)(F)F)c2)ccc1F [compound 137, 4-((4-((4-Fluoro-3-methoxybenzyl)oxy)-2-(4-methylpiperazin-1-yl)pyrimidin-5-yl)thio)-2-(trifluoromethyl)benzamide] | < 0.2
15 | COc1cccc(COc2nc(N3CCOCC3)ncc2Sc2ccc(C(N)=O)cc2)c1 [190a, 4-((4-((3-Methoxybenzyl)oxy)-2-morpholinopyrimidin-5-yl)thio)benzamide] | 0.2 to 0.4
16 | COc1ccc(COc2nc(N3CCN(C)CC3)ncc2Oc2ccc(C(N)=O)cc2)cc1 [compound 283, 4-((4-((4-Methoxybenzyl)oxy)-2-(4-methylpiperazin-1-yl)pyrimidin-5-yl)oxy)benzamide] | ≥ 1.2
